Like-named read-outs stand apart in the source and are kept apart here.
System: cancer cell lines
Test: Cancer cell proliferation activity (CellTiterGlo, 72 h)
Type: cell-based
Details: 72 h, 72 h, read-out: IC50 cell proliferation
Procedure, shortened: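 Readout is CellTiterGlo luminescence after 72 h compound exposure (0.1% DMSO final), started one day post-seeding, at 37 °C.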

Nc1nc(=O)n([C@H]2C[C@H](O)[C@@H](CO)O2)cc1F [compound 169, 4-amino-5-fluoro-1-((2R,4S,5R)-4-hydroxy-5-(hydroxymethyl)tetrahydrofuran-2-yl)pyrimidin-2(1H)-one]
IC50 (5637 (bladder)): 1 nM
IC50 (CLS439 (bladder)): 23 nM
IC50 (HS729 (muscle)): 15 nM
IC50 (J82 (bladder)): 5 nM
IC50 (JAR (placenta)): 18 nM
IC50 (MT3 (breast)): 4 nM
IC50 (PANCI (pancreas)): 28 nM
IC50 (PC3 (prostate)): 14 nM
IC50 (RD (muscle)): 10 nM
IC50 (T24 (bladder)): 5 nM
IC50 (Homo sapiens, 22Rv1, 72 h, 22RV1 (prostate)): 2 nM
IC50 (Homo sapiens, 786-0, 72 h, 786O (kidney)): 17 nM
IC50 (Homo sapiens, A204, 72 h, A204 (muscle)): 51 nM
IC50 (Homo sapiens, A549, 72 h, A549 (lung)): 14 nM
IC50 (Homo sapiens, A673, 72 h, A673 (bone)): 3 nM
IC50 (Homo sapiens, A2780, 72 h, A2780 (ovary)): 8 nM
IC50 (Homo sapiens, A-375, 72 h, A375 (skin)): 7 nM
IC50 (Homo sapiens, A-431, 72 h, A431 (skin)): 0.4 nM
IC50 (Homo sapiens, ACHN, ACHN (kidney)): 3 nM
IC50 (Homo sapiens, ASPC1, 72 h, ASPC1 (pancreas)): 8 nM
IC50 (Homo sapiens, BT-20, 72 h, BT20 (breast)): > 50000 nM
IC50 (Homo sapiens, BXPC-3, 72 h, BXPC3 (pancreas)): 1 nM
IC50 (Homo sapiens, C-33-A, C33A (endometrial)): 9 nM
IC50 (Homo sapiens, CAKI-1, 72 h, CAKI1 (kidney)): 45 nM
IC50 (Homo sapiens, COLO 205, 72 h, COLO205 (colon)): 1 nM
IC50 (Homo sapiens, COLO-678, 72 h, COLO678 (colon)): > 50000 nM
IC50 (Homo sapiens, Ca-Ski, CASKI (endometrial)): 23 nM
IC50 (Homo sapiens, Caco-2, 72 h, CACO2 (colon)): > 50000 nM
IC50 (Homo sapiens, Calu-6, 72 h, CALU6 (lung)): 29 nM
IC50 (Homo sapiens, DLD-1, 72 h, DLD1 (colon)): 16 nM
IC50 (Homo sapiens, DU-145, 72 h, DU145 (prostate)): 10 nM
IC50 (Homo sapiens, EFO-21, 72 h, EFO21 (ovary)): 476 nM
IC50 (Homo sapiens, EJ-28, 72 h, EJ28 (bladder)): 4 nM
IC50 (Homo sapiens, Granta-519, 72 h, GRANTA-519 (hematological)): 9 nM
IC50 (Homo sapiens, HCT-15, 72 h, HCT15 (colon)): 15 nM
IC50 (Homo sapiens, HCT-116, 72 h, HCT116 (colon)): 23 nM
IC50 (Homo sapiens, HEK293, 72 h, HEK293 (kidney)): 30 nM
IC50 (Homo sapiens, HL-60, 72 h, HL-60 (hematological)): 8 nM
IC50 (Homo sapiens, HT-29, 72 h, HT29 (colon)): 2 nM
IC50 (Homo sapiens, HT-1080, 72 h, HT1080 (connective tissue)): 8 nM
IC50 (Homo sapiens, HeLa, HELA (endometrial)): 1530 nM
IC50 (Homo sapiens, HepG2, 72 h, HEPG2 (liver)): 2 nM
IC50 (Homo sapiens, Hs-578T, HS578T (breast)): > 50000 nM
IC50 (Homo sapiens, IGROV-1, 72 h, IGROV1 (ovary)): 22 nM
IC50 (Homo sapiens, IMR-90, 72 h, IMR90 (lung)): > 50000 nM
IC50 (Homo sapiens, JEG-3, 72 h, JEG3 (placenta)): 2 nM
IC50 (Homo sapiens, JIMT-1, 72 h, JIMT1 (breast)): 34 nM
IC50 (Homo sapiens, K562, 72 h, K-562 (hematological)): 94 nM
IC50 (Homo sapiens, Kasumi 1, 72 h, KASUMI-1 (hematological)): 16 nM
IC50 (Homo sapiens, L-363, 72 h, L-363 (hematological)): 3 nM
IC50 (Homo sapiens, LoVo, LOVO (colon)): 2 nM
IC50 (Homo sapiens, MCF7, 72 h, MCF7 (breast)): 2 nM
IC50 (Homo sapiens, MDA-MB-231, 72 h, MDAMB231 (breast)): 381 nM
IC50 (Homo sapiens, MDA-MB-435, 72 h, MDAMB435 (skin)): 17 nM
IC50 (Homo sapiens, MDA-MB-436, 72 h, MDAMB436 (breast)): 3 nM
IC50 (Homo sapiens, MDA-MB-468, 72 h, MDAMB468 (breast)): 18 nM
IC50 (Homo sapiens, MG-63, 72 h, MG63 (bone)): 10 nM
IC50 (Homo sapiens, MHH-ES-1, 72 h, MHHES1 (bone)): 5 nM
IC50 (Homo sapiens, MIA PaCa-2, 72 h, MIAPACA2 (pancreas)): 16 nM
IC50 (Homo sapiens, MINO, MINO (hematological)): 1 nM
IC50 (Homo sapiens, MV4-11, 72 h, MV4-11 (hematological)): 1 nM
IC50 (Homo sapiens, NCI-H23, 72 h, NCI-H23 (lung)): 8 nM
IC50 (Homo sapiens, NCI-H82, 72 h, NCIH82 (lung)): 6 nM
IC50 (Homo sapiens, NCI-H292, 72 h, NCIH292 (lung)): 19 nM
IC50 (Homo sapiens, NCI-H460, 72 h, NCIH460 (lung)): 2 nM
IC50 (Homo sapiens, OVCAR-3, 72 h, OVCAR3 (ovary)): 15 nM
IC50 (Homo sapiens, OVCAR-4, 72 h, OVCAR4 (ovary)): 538 nM
IC50 (Homo sapiens, PLC-PRF-5, 72 h, PLCPRF5 (liver)): 19 nM
IC50 (Homo sapiens, Panc1005, 72 h, PANC1005 (pancreas)): 553 nM
IC50 (Homo sapiens, Ramos, RAMOS (hematological)): 18 nM
IC50 (Homo sapiens, SAOS-2, 72 h, SAOS2 (bone)): 3 nM
IC50 (Homo sapiens, SF-268, 72 h, SF268 (brain)): 7 nM
IC50 (Homo sapiens, SF-295, 72 h, SF295 (brain)): 7 nM
IC50 (Homo sapiens, SK-HEP1, 72 h, SKHEP1 (liver)): 16 nM
IC50 (Homo sapiens, SK-LMS-1, 72 h, SKLMS1 (uterus)): 11 nM
IC50 (Homo sapiens, SK-MEL-5, 72 h, SKMEL5 (skin; SKMELS [sic] in Table 9E)): 29 nM
IC50 (Homo sapiens, SK-MEL-28, 72 h, SKMEL28 (skin)): 112 nM
IC50 (Homo sapiens, SK-N-AS, SKNAS (brain)): > 50000 nM
IC50 (Homo sapiens, SK-N-SH, SKNSH (brain)): 151 nM
IC50 (Homo sapiens, SK-OV-3, 72 h, SKOV3 (ovary)): 28 nM
IC50 (Homo sapiens, SNB-75, 72 h, SNB75 (brain)): > 50000 nM
IC50 (Homo sapiens, SU-DHL10, 72 h, SU-DHL-10 (hematological)): 226 nM
IC50 (Homo sapiens, SU-DHL-6, 72 h, SU-DHL-6 (hematological)): 7 nM
IC50 (Homo sapiens, SW-620, 72 h, SW620 (colon)): 2 nM
IC50 (Homo sapiens, TE-671, 72 h, TE671 (muscle)): 8 nM
IC50 (Homo sapiens, THP-1, 72 h, THP-1 (hematological)): 2 nM
IC50 (Homo sapiens, U2OS, U20S (bone; U2OS in Table 9E)): > 50000 nM
IC50 (Homo sapiens, U-87 MG, U87MG (brain)): > 50000 nM
IC50 (Homo sapiens, UMUC3, 72 h, UMUC3 (bladder)): 7 nM
IC50 (Homo sapiens, UO-31, 72 h, UO31 (kidney)): 31 nM
IC50 (Homo sapiens, WSU-NHL, WSU-NHL (hematological)): 1 nM
IC50 (NCI-H358M, NCIH358M (lung)): 6 nM
IC50 (PBMC, PBMC (hematological)): > 50000 nM
IC50 (RD-ES, RDES (bone)): 7 nM

Source: patent publication US20250215039A1, “NUCLEOSIDES FOR TREATING CANCER” (PRIMEFOUR THERAPEUTICS, INC., priority 2022, published 2025)
